Tested on: HOTCs
Experiment: HOTC maintenance in serum-free media with antibiotic
Format: cell-based
Settings: by 21 DIV, in SFM
Protocol: HOTCs were prepared and maintained by initial incubation in serum-based media followed by transfer to a serum-free media (SFM) at 4 days in vitro (DIV). The transfer from serum-containing medium to SFM prevented neuronal loss from occurring after two weeks of culture (stability was measured by neuron-specific nuclear protein (NeuN)-based western blots), and prevented glial activation in the HOTCs. SFM contained Neurobasal medium ((96%) from Invitrogen) supplemented to 42 mM glucose, 1 mM glutamine (from Sigma), 2% B27 supplement, 10 μg/mL gentamicin and […] Fungizone (from Invitrogen). […] The SFM was changed twice a week and the HOTCs were incubated at 36° C. with 5% CO2-balance air. Slices were maintained to 21 DIV to allow cultures to mature, and used from 21-30 DIV.

penicillin
CA3 field potentials from dentate gyrus stimulation: no CA3 field potentials were seen | pyramidal cell survival in HOTCs: most pyramidal cells were dead
